Experimental data taken from patent US20230365628A1, “MACROCYCLIC IMMUNOMODULATORS” (Bristol-Myers Squibb Company, priority 2020, published 2023).
*1 amine or outer side, *2 acyl side, *3 side chain or, on linkers, in order; H or OH if unused. Where a SMILES comes first, the peptide text is derived from it. Bridges are numbered along the chain shown (N, C = ends). [ ]: non-standard residue; d: D form. The star is where a group is joined. Trp(1-CH2CO) = O=C([C@H](Cc1cn(CC(=O)[*:3])c2ccccc12)N[*:1])[*:2]; Dodecyloxycarbonyl = CCCCCCCCCCCCOC(=O)*; X4 = CCc1cccc(CC)c1-c1nc(*)c2ccccc2n1; Fmoc = O=C(OCC1c2ccccc2-c2ccccc21)*; Oleoyl = CCCCCCCC/C=C\CCCCCCCC(=O)*; X2 = COc1ccc2nc(-c3ccccc3)nc(*)c2c1; Hyp = O=C(O)[C@@H]1C[C@@H](O)CN1; X1 = COC(=O)c1ccc2cnc(*)nc2c1; NMeNle = CCCC[C@H](NC)C(=O)O; X6 = CCCCCCCCCCCCCCCCOC(=O)*; NMeA = CN[C@@H](C)C(=O)O; X3 = Brc1ccc2ncnc(*)c2c1; Dab = NCC[C@H](N)C(=O)O; Dap = NC[C@H](N)C(=O)O; X5 = CC(C)(C)SC(=O)*

Each molecule was assayed against T1, PD-1/PD-L1 (Homo sapiens, UniProt Q9NZQ7) (assay: PD-1/PD-L1 Homogenous Time-Resolved Fluorescence (HTRF) binding assay). Settings: PD-L1-His 10 nM, PD-1-Ig 20 nM; soluble extracellular domains.
T1 construct: TVMV protease site linker (C); made in house; host or cells: HEK293T cells
T1 sequence (Q9NZQ7 18-239): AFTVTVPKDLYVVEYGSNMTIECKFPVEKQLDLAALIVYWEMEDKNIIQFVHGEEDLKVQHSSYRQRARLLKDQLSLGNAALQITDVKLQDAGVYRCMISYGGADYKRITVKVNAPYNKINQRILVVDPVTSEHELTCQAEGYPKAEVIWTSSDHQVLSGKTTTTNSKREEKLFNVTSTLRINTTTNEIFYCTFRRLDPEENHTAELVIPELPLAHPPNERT
Excerpt: Methods for Testing the Ability of Macrocyclic Peptides to Compete for the Binding of Pd-1 to Pd-L1 Using Homogenous Time-Resolved Fluorescence (Htrf) Binding Assays
The ability of the compounds of formula (I) to bind to PD-L1 was investigated using a PD-1/PD-L1 Homogenous Time-Resolved Fluorescence (HTRF) binding assay.
The interaction of PD-1 and PD-L1 can be assessed using soluble, purified preparations of the extracellular domains of the two proteins. The PD-1 and PD-L1 protein extracellular domains were expressed as fusion proteins with detection tags, for PD-1, the tag was the Fc portion of Immunoglobulin (PD-1-Ig) and for PD-L1 it was the 6 histidine motif (PD-L1-His). All binding studies were performed in an HTRF assay buffer consisting of dPBS supplemented with 0.1% […] bovine serum albumin and 0.05% (v/v) Tween-20. For the h/PD-L1-His binding assay, inhibitors were pre-incubated with PD-L1-His (10 nM final) for 15 m in 4 μl of assay buffer, followed by addition of PD-1-Ig (20 nM final) in 1 μl of assay buffer and further incubation for 15 m. HTRF detection was achieved using europium crypate-labeled anti-Ig (1 nM final) and allophycocyanin (APC) labeled anti-His (20 nM final). Antibodies were diluted in HTRF detection buffer and 5 μl was dispensed on top of the binding reaction. The reaction mixture was allowed to equilibrate for 30 minutes and the resulting signal (665 nm/620 nm ratio) was obtained using an EnVision fluorometer. Additional binding assays were established between the human proteins PD-1-Ig/PD-L2-His (20 & 5 nM, respectively) and CD80-His/PD-L1-Ig (100 & 10 nM, respectively).
Recombinant Proteins: Human PD-1 (25-167) with a C-terminal human Fc domain of immunoglobulin G (Ig) epitope tag [hPD-1(25-167)-3S-IG] and human PD-L1 (18-239) with a C-terminal His epitope tag [hPD-L1(18-239)-TVMV-His] were expressed in HEK293T cells and purified sequentially by Protein A affinity chromatography and size exclusion chromatography. Human PD-L2-His and CD80-His was obtained through commercial sources.
Table 1 lists the IC50 values for representative examples of this disclosure measured in the PD-1/PD-L1 Homogenous Time-Resolved Fluorescence (HTRF) binding assay.

Going from `CCCCCCCCCCCCOC(=O)NC[C@@H]1NC(=O)[C@@H]2CCCN2C(=O)[C@H](CC(N)=O)NC(=O)[C@H](C)N(C)C(=O)[C@H](Cc2ccc(O)cc2)NC(=O)CSC[C@@H](C(=O)NCC(N)=O)NC(=O)[C@H](CC(C)C)NC(=O)[C@H](CCCC)N(C)C(=O)[C@H](CCCC)N(C)C(=O)[C@@H]2Cc3cn(c4ccccc34)CC(=O)NCC[C@H](NC(=O)[C@H](Cc3c[nH]c4ccccc34)NC(=O)[C@@H]3C[C@@H](O)CN3C(=O)[C@H](CC(C)C)NC1=O)C(=O)N2` [Example 1001] ({CH2CO}-Y[NMeA]NP[Dap](Dodecyloxycarbonyl)L[Hyp]W[Dab][Trp(1-CH2CO)][NMeNle][NMeNle]LCG-NH2; lactam 9-10; thioether N-14) to `CCCCCCCCCCCCCCCCOC(=O)NC[C@@H]1NC(=O)[C@@H]2CCCN2C(=O)[C@H](CC(N)=O)NC(=O)[C@H](C)N(C)C(=O)[C@H](Cc2ccc(O)cc2)NC(=O)CSC[C@@H](C(=O)NCC(N)=O)NC(=O)[C@H](CC(C)C)NC(=O)[C@H](CCCC)N(C)C(=O)[C@H](CCCC)N(C)C(=O)[C@@H]2Cc3cn(c4ccccc34)CC(=O)NCC[C@H](NC(=O)[C@H](Cc3c[nH]c4ccccc34)NC(=O)[C@@H]3C[C@@H](O)CN3C(=O)[C@H](CC(C)C)NC1=O)C(=O)N2` [Example 1002] ({CH2CO}-Y[NMeA]NP[Dap](X6)L[Hyp]W[Dab][Trp(1-CH2CO)][NMeNle][NMeNle]LCG-NH2; lactam 9-10; thioether N-14), the IC50 rises from 0.28 µM to 2.2 µM (7.9-fold). The first is the more potent here.

First: CCCCCCCC/C=C\CCCCCCCC(=O)NC[C@@H]1NC(=O)[C@@H]2CCCN2C(=O)[C@H](CC(N)=O)NC(=O)[C@H](C)N(C)C(=O)[C@H](Cc2ccc(O)cc2)NC(=O)CSC[C@@H](C(=O)NCC(N)=O)NC(=O)[C@H](CC(C)C)NC(=O)[C@H](CCCC)N(C)C(=O)[C@H](CCCC)N(C)C(=O)[C@@H]2Cc3cn(c4ccccc34)CC(=O)NCC[C@H](NC(=O)[C@H](Cc3c[nH]c4ccccc34)NC(=O)[C@@H]3C[C@@H](O)CN3C(=O)[C@H](CC(C)C)NC1=O)C(=O)N2 [Example 1003] ({CH2CO}-Y[NMeA]NP[Dap](Oleoyl)L[Hyp]W[Dab][Trp(1-CH2CO)][NMeNle][NMeNle]LCG-NH2; lactam 9-10; thioether N-14)
Second: CCCC[C@H]1C(=O)N(C)[C@@H](CCCC)C(=O)N[C@@H](CC(C)C)C(=O)N[C@H](C(=O)NCC(N)=O)CSCC(=O)N[C@@H](Cc2ccc(O)cc2)C(=O)N(C)[C@@H](C)C(=O)N[C@@H](CC(N)=O)C(=O)N2CCC[C@H]2C(=O)N[C@@H](CNC(=O)SC(C)(C)C)C(=O)N[C@@H](CC(C)C)C(=O)N2C[C@H](O)C[C@H]2C(=O)N[C@@H](Cc2c[nH]c3ccccc23)C(=O)N[C@H]2CCNC(=O)Cn3cc(c4ccccc43)C[C@H](NC2=O)C(=O)N1C [Example 1005] ({CH2CO}-Y[NMeA]NP[Dap](X5)L[Hyp]W[Dab][Trp(1-CH2CO)][NMeNle][NMeNle]LCG-NH2; lactam 9-10; thioether N-14)
The IC50 of the first is higher: greater than 10 µM for the first, 0.00058 µM for the second.

First: CCCC[C@H]1C(=O)N(C)[C@@H](CCCC)C(=O)N[C@@H](CC(C)C)C(=O)N[C@H](C(=O)NCC(N)=O)CSCC(=O)N[C@@H](Cc2ccc(O)cc2)C(=O)N(C)[C@@H](C)C(=O)N[C@@H](CC(N)=O)C(=O)N2CCC[C@H]2C(=O)N[C@@H](CNC(=O)OCC2c3ccccc3-c3ccccc32)C(=O)N[C@@H](CC(C)C)C(=O)N2C[C@H](O)C[C@H]2C(=O)N[C@@H](Cc2c[nH]c3ccccc23)C(=O)N[C@H]2CCNC(=O)Cn3cc(c4ccccc43)C[C@H](NC2=O)C(=O)N1C [Example 1004] ({CH2CO}-Y[NMeA]NP[Dap](Fmoc)L[Hyp]W[Dab][Trp(1-CH2CO)][NMeNle][NMeNle]LCG-NH2; lactam 9-10; thioether N-14)
Second: CCCC[C@H]1C(=O)N(C)[C@@H](CCCC)C(=O)N[C@@H](CC(C)C)C(=O)N[C@H](C(=O)NCC(N)=O)CSCC(=O)N[C@@H](Cc2ccc(O)cc2)C(=O)N(C)[C@@H](C)C(=O)N[C@@H](CC(N)=O)C(=O)N2CCC[C@H]2C(=O)N[C@@H](CNc2nc(-c3ccccc3)nc3ccc(OC)cc23)C(=O)N[C@@H](CC(C)C)C(=O)N2C[C@H](O)C[C@H]2C(=O)N[C@@H](Cc2c[nH]c3ccccc23)C(=O)N[C@H]2CCNC(=O)Cn3cc(c4ccccc43)C[C@H](NC2=O)C(=O)N1C [Example 1014] ({CH2CO}-Y[NMeA]NP[Dap](X2)L[Hyp]W[Dab][Trp(1-CH2CO)][NMeNle][NMeNle]LCG-NH2; lactam 9-10; thioether N-14)
The IC50 of the first is 3.1-fold lower: 0.016 µM for the first, 0.049 µM for the second. The first is the more potent here.

First: CCCC[C@H]1C(=O)N(C)[C@@H](CCCC)C(=O)N[C@@H](CC(C)C)C(=O)N[C@H](C(=O)NCC(N)=O)CSCC(=O)N[C@@H](Cc2ccc(O)cc2)C(=O)N(C)[C@@H](C)C(=O)N[C@@H](CC(N)=O)C(=O)N2CCC[C@H]2C(=O)N[C@@H](CNc2nc(Cl)nc3ccc(-c4ccccc4C)cc23)C(=O)N[C@@H](CC(C)C)C(=O)N2C[C@H](O)C[C@H]2C(=O)N[C@@H](Cc2c[nH]c3ccccc23)C(=O)N[C@H]2CCCC(=O)Cn3cc(c4ccccc43)C[C@H](NC2=O)C(=O)N1C [Example 1007]
Second: CCCC[C@H]1C(=O)N(C)[C@@H](CCCC)C(=O)N[C@@H](CC(C)C)C(=O)N[C@H](C(=O)NCC(N)=O)CSCC(=O)N[C@@H](Cc2ccc(O)cc2)C(=O)N(C)[C@@H](C)C(=O)N[C@@H](CC(N)=O)C(=O)N2CCC[C@H]2C(=O)N[C@@H](CNc2nc(-c3c(CC)cccc3CC)nc3ccccc23)C(=O)N[C@@H](CC(C)C)C(=O)N2C[C@H](O)C[C@H]2C(=O)N[C@@H](Cc2c[nH]c3ccccc23)C(=O)N[C@H]2CCNC(=O)Cn3cc(c4ccccc43)C[C@H](NC2=O)C(=O)N1C [Example 1013] ({CH2CO}-Y[NMeA]NP[Dap](X4)L[Hyp]W[Dab][Trp(1-CH2CO)][NMeNle][NMeNle]LCG-NH2; lactam 9-10; thioether N-14)
The IC50 of the first is 29-fold higher: 1.2 µM for the first, 0.041 µM for the second.

`CCCC[C@H]1C(=O)N(C)[C@@H](CCCC)C(=O)N[C@@H](CC(C)C)C(=O)N[C@H](C(=O)NCC(N)=O)CSCC(=O)N[C@@H](Cc2ccc(O)cc2)C(=O)N(C)[C@@H](C)C(=O)N[C@@H](CC(N)=O)C(=O)N2CCC[C@H]2C(=O)N[C@@H](CNc2ncnc3ccc(Br)cc23)C(=O)N[C@@H](CC(C)C)C(=O)N2C[C@H](O)C[C@H]2C(=O)N[C@@H](Cc2c[nH]c3ccccc23)C(=O)N[C@H]2CCNC(=O)Cn3cc(c4ccccc43)C[C@H](NC2=O)C(=O)N1C` [Example 1015] ({CH2CO}-Y[NMeA]NP[Dap](X3)L[Hyp]W[Dab][Trp(1-CH2CO)][NMeNle][NMeNle]LCG-NH2; lactam 9-10; thioether N-14) and `CCCC[C@H]1C(=O)N(C)[C@@H](CCCC)C(=O)N[C@@H](CC(C)C)C(=O)N[C@H](C(=O)NCC(N)=O)CSCC(=O)N[C@@H](Cc2ccc(O)cc2)C(=O)N(C)[C@@H](C)C(=O)N[C@@H](CC(N)=O)C(=O)N2CCC[C@H]2C(=O)N[C@@H](CNc2ncc3ccc(C(=O)OC)cc3n2)C(=O)N[C@@H](CC(C)C)C(=O)N2C[C@H](O)C[C@H]2C(=O)N[C@@H](Cc2c[nH]c3ccccc23)C(=O)N[C@H]2CCNC(=O)Cn3cc(c4ccccc43)C[C@H](NC2=O)C(=O)N1C` [Example 1016] ({CH2CO}-Y[NMeA]NP[Dap](X1)L[Hyp]W[Dab][Trp(1-CH2CO)][NMeNle][NMeNle]LCG-NH2; lactam 9-10; thioether N-14) are within 1.5-fold of each other in IC50: 0.097 µM for the first, 0.12 µM for the second.
